Test results: ChEMBL document CHEMBL5050844 (2019)

Experiments:
[1] = biological target: E3 ubiquitin-protein ligase CBL-B (Homo sapiens, UniProt Q13191); test: Inhibition of N-terminal Avi-tagged human CBL-B (36 to 427 residues) incubated with 60 nM Src kinase for 1.5 hrs followed by incubation with fluorescently labeled UbcH5B-Ub for 1 hr and measured by TR-FRET assay; format: single protein
[2] = Induction of anti-CD3/CD28 antibodies-stimulated human T cell activation at 1 uM assessed fold increase in IL-2 secretion measured by ELISA assay; format: functional, T cell line
[3] = Induction of anti-CD3/CD28 antibodies-stimulated human T cell activation at 0.3 uM assessed fold increase in IL-2 secretion measured by ELISA assay; format: functional, T cell line
[4] = Induction of anti-CD3 antibodies-stimulated human T cell activation at 1 uM assessed fold increase in IL-2 secretion measured by ELISA assay; format: functional, T cell line; also: reference of the scale not given here
[5] = Induction of anti-CD3/CD28 antibodies-stimulated human T cell activation at 1 uM assessed fold increase in CD25 expression measured by ELISA assay; format: functional, T cell line
[6] = Induction of anti-CD3/CD28 antibodies-stimulated human T cell activation at 0.3 uM assessed fold increase in CD25 expression measured by ELISA assay; format: functional, T cell line
[7] = Induction of anti-CD3 antibodies-stimulated human T cell activation at 1 uM assessed fold increase in CD25 expression measured by ELISA assay; format: functional, T cell line; also: reference of the scale not given here

Sequence of E3 ubiquitin-protein ligase CBL-B (Q13191 whole entry, the tested form may be a part): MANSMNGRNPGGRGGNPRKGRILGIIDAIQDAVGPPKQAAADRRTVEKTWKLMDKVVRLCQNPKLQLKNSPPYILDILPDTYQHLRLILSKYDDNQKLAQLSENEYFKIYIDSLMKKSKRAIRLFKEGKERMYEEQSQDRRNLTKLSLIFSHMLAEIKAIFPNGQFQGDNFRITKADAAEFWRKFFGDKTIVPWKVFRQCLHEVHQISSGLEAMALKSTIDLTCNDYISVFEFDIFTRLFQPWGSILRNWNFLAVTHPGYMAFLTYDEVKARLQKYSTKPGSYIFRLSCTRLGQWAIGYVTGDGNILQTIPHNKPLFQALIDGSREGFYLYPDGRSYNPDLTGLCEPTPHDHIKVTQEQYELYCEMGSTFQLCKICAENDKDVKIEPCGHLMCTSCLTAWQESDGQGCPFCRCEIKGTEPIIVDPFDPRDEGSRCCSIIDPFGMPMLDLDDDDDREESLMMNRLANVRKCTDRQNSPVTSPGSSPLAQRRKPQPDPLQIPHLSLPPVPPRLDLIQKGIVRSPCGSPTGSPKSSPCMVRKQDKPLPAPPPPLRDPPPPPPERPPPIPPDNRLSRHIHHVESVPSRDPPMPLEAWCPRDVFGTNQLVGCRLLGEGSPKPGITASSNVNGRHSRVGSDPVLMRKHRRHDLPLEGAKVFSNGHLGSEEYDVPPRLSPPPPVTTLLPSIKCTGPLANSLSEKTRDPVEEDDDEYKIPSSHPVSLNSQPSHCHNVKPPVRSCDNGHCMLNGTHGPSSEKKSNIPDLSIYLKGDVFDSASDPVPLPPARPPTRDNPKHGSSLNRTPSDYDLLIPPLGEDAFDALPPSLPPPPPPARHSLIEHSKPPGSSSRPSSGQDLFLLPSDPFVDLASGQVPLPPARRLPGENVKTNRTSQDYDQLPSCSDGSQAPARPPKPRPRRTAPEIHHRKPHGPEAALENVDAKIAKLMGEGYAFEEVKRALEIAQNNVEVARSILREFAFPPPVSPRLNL

Structure (SMILES)	IC50 [1]	fold change (FC) [2]	fold change (FC) [3]	fold change (FC) [4]	fold change (FC) [5]	fold change (FC) [6]	fold change (FC) [7]
CN1CC2CCC1CN2c1cc2c(c(C(F)(F)F)c1)CN(c1cccc(C3(Cc4nncn4C)COC3)c1)C2=O (centres undefined)	< 100 nM	5	2.51	>=0.201	1.31	1.01	0.801
Cn1cnnc1CC1(c2cccc(N3Cc4c(cc(N5CC(C(F)F)C5)cc4C(F)(F)F)C3=O)c2)COC1	< 100 nM	5	2.51	0.051	1.01	1.01	0.801
Cn1cnnc1CC1(c2cccc(NC(=O)c3cc(CN4CC[C@H](F)C4)nc(C4CC4)n3)c2)COC1	< 100 nM	>=7.5	>=7.5	>=0.201	1.51	1.51	>=1.001
Cn1cnnc1CC1(c2cccc(N3Cc4c(cc(CN5CCS(=O)(=O)CC5)cc4C(F)(F)F)C3=O)c2)COC1	< 100 nM	2.51	2.51	0.101	1.01	1.01	>=1.001
Cn1cnnc1CC1(c2cccc(NC(=O)c3cc(CN4CCC4)nc(C4CC4)n3)c2)COC1	< 100 nM	5	2.51	0.051	1.31	1.01	0.801
C[C@H]1CN(C)CCN1c1cc2c(c(C(F)(F)F)c1)CN(c1cccc(C3(Cc4nncn4C)COC3)c1)C2=O	< 100 nM	>=7.5	5	>=0.201	1.31	1.01	>=1.001
Cn1cnnc1CC1(c2cccc(N3Cc4c(cc(N5CC(C(F)(F)F)C5)cc4C(F)(F)F)C3=O)c2)COC1	< 100 nM	>=7.5	2.51	0.051	1.01	1.01	>=1.001
Cn1cnnc1CC1(c2cccc(N3Cc4c(cc(CN5CCOC6(CCC6)C5)cc4C(F)(F)F)C3=O)c2)COC1	< 100 nM	>=7.5	>=7.5	>=0.201	1.01	1.01	>=1.001
COc1cccc2c1CN(Cc1cc3c(c(C(F)(F)F)c1)CN(c1cccc(C4(Cc5nncn5C)COC4)c1)C3=O)C2	< 100 nM	>=7.5	5	>=0.201	1.51	1.51	>=1.001
Cc1cc(C(=O)Nc2cccc(C(C)(C)Cc3nncn3C)c2)nc(C2CC2)n1	< 100 nM	>=7.5	5	0.101	1.31	1.31	0.801
Cc1cc(C(=O)Nc2cccc(C3([C@@H](F)c4nncn4C)COC3)c2)nc(C2CC2)n1	< 100 nM	>=7.5	2.51	>=0.201	1.31	1.01	>=1.001
CC1CN(c2cc3c(c(C(F)(F)F)c2)CN(c2cccc(C4(Cc5nncn5C)COC4)c2)C3=O)C1	< 100 nM	2.51	1.01	0.101	1.01	1.01	0.601
C[C@@H](c1cc2c(c(C(F)(F)F)c1)CN(c1cccc(C3(Cc4nncn4C)COC3)c1)C2=O)N1CCC2(CC1)CC2	< 100 nM	>=7.5	>=7.5	>=0.201	1.01	1.01	>=1.001
Cn1cnnc1CC1(c2cccc(NC(=O)c3cc(CN4CC[C@H](O)C4)nc(C4CC4)n3)c2)COC1	< 100 nM	2.51	1.01	0.051	1.01	1.01	0.601
Cn1cnnc1CC1(c2cccc(N3Cc4c(cc(C(N5CCCC5)C(F)(F)F)cc4C(F)(F)F)C3=O)c2)COC1 (centres undefined)	< 100 nM	2.51	1.01	0.051	1.31	1.01	0.801
Cn1cnnc1CC1(c2cccc(N3Cc4c(cc(CN5CC[C@@H]6C[C@@H]65)cc4C(F)(F)F)C3=O)c2)COC1	< 100 nM	>=7.5	>=7.5	>=0.201	1.51	1.51	>=1.001
Cn1cnnc1CC1(c2cccc(N3Cc4c(cc(C5CC5)nc4C4CC4)C3=O)c2)COC1	< 100 nM	1.01	1.01	0.101	1.01	1.01	0.801
CC(c1cc(C(=O)Nc2cccc(C3(Cc4nncn4C)COC3)c2)nc(C2CC2)n1)N1CCCC1 (centres undefined)	< 100 nM	>=7.5	>=7.5	>=0.201	1.31	1.31	>=1.001
Cn1cnnc1CC1(c2cccc(N3Cc4c(cc(CN5CCC(C)(C#N)CC5)cc4C(F)(F)F)C3=O)c2)COC1	< 100 nM	>=7.5	>=7.5	0.151	1.31	1.31	>=1.001
Cn1cnnc1CC1(c2cccc(NC(=O)c3cc(CN4CCC5CC54)cc(C4CC4)n3)c2)COC1 (centres undefined)	< 100 nM	>=7.5	>=7.5	>=0.201	1.31	1.31	>=1.001
Cn1cnnc1[C@H](F)C1(c2cccc(N3Cc4c(cc(CN5CCCCC5)cc4C(F)(F)F)C3=O)c2)COC1	< 100 nM	>=7.5	>=7.5	>=0.201	1.01	1.01	>=1.001
CN(C)Cc1cc(C(=O)Nc2cccc(C3(Cc4nncn4C)COC3)c2)nc(C2CC2)n1	< 100 nM	>=7.5	2.51	0.101	1.31	1.31	>=1.001
